Measurements published in patent US20060069123A1, “Substituted dipiperidine CCR2 antagonists” (priority 2004, published 2006).

molecular target: T1, CCR2 (Homo sapiens, UniProt P41597)
T1 sequence (P41597 1-360 isoform P41597-2): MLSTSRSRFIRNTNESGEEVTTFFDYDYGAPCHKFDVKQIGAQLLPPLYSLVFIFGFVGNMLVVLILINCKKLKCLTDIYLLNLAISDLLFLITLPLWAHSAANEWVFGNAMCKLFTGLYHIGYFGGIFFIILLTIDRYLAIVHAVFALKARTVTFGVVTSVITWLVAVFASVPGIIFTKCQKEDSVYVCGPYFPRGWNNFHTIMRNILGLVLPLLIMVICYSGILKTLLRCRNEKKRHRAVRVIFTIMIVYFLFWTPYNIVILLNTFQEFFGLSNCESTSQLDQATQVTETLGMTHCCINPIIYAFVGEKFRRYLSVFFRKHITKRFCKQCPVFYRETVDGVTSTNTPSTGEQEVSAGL

SMILES	IC50
O=C(O)C(C1CCN(C(=O)/C=C/c2ccc(Cl)c(Cl)c2)CC1)N1CCC(c2ccc(Cl)cc2)CC1 (centres unmarked) [Cpd 1, [4-(4-chloro-phenyl)-piperidin-1-yl]-{1-[(2E)-3-(3,4-dichloro-phenyl)-acryloyl]-piperidin-4-yl}-acetic acid]	253 nM
COC(=O)C(C1CCN(C(=O)/C=C/c2cc(F)cc(F)c2)CC1)N1CCC(c2ccc(OC)cc2)CC1 (centres unmarked) [Cpd 3, {1-[(2E)-3-(3,5-difluoro-phenyl)-acryloyl]-piperidin-4-yl}-[4-(4-methoxy-phenyl)-piperidin-1-yl]-acetic acid methyl ester]	3800 nM
O=C(O)C(C1CCN(C(=O)/C=C/c2cc(F)c(F)c(F)c2)CC1)N1CCC(c2ccc(Cl)cc2)CC1 (centres unmarked) [Cpd 4, [4-(4-chloro-phenyl)-piperidin-1-yl]-{1-[(2E)-3-(3,4,5-trifluoro-phenyl)-acryloyl]-piperidin-4-yl}-acetic acid]	370 nM
COc1ccc(C2CCN(C(C(=O)O)C3CCN(C(=O)/C=C/c4cc(F)c(F)c(F)c4)CC3)CC2)cc1 (centres unmarked) [Cpd 5, [4-(4-methoxy-phenyl)-piperidin-1-yl]-{1-[(2E)-3-(3,4,5-trifluoro-phenyl)-acryloyl]-piperidin-4-yl}-acetic acid]	840 nM
O=C(O)C(C1CCN(C(=O)/C=C/c2cc(F)c(F)c(F)c2)CC1)N1CCC(n2ccc3ccccc32)CC1 (centres unmarked) [Cpd 10, (4-indol-1-yl-piperidin-1-yl)-{1-[(2E)-3-(3,4,5-trifluoro-phenyl)-acryloyl]-piperidin-4-yl}-acetic acid]	8600 nM
O=C(O)C(C1CCN(C(=O)/C=C/c2cc(F)cc(F)c2)CC1)N1CCC(Cc2c[nH]c3ccccc23)CC1 (centres unmarked) [Cpd 11, {1-[(2E)-3-(3,5-difluoro-phenyl)-acryloyl]-piperidin-4-yl}-[4-(1H-indol-3-ylmethyl)-piperidin-1-yl]-acetic acid]	2170 nM
O=C(O)C(C1CCN(C(=O)/C=C/c2cc(F)c(F)c(F)c2)CC1)N1CCC(Cc2c[nH]c3ccccc23)CC1 (centres unmarked) [Cpd 12, [4-(1H-indol-3-ylmethyl)-piperidin-1-yl]-{1-[(2E)-3-(3,4,5-trifluoro-phenyl)-acryloyl]-piperidin-4-yl}-acetic acid]	410 nM
O=C(O)C(C1CCN(C(=S)Nc2ccccc2)CC1)N1CCC(c2c[nH]c3ccccc23)CC1 (centres unmarked) [Cpd 43, [4-(1H-indol-3-yl)-piperidin-1-yl]-(1-phenylthiocarbamoyl-piperidin-4-yl)-acetic acid]	1100 nM
O=C(O)C(C1CCN(C(=S)Nc2ccc(F)cc2F)CC1)N1CCC(c2c[nH]c3ccccc23)CC1 (centres unmarked) [Cpd 44, [1-(2,4-difluoro-phenylthiocarbamoyl)-piperidin-4-yl]-[4-(1H-indol-3-yl)-piperidin-1-yl]-acetic acid]	2700 nM
N=C(NC(=O)c1ccc(Cl)c(Cl)c1)N1CCC(C(C(=O)O)N2CCC(c3c[nH]c4ccccc34)CC2)CC1 (centres unmarked) [Cpd 50, {1-[(3,4-dichloro-benzoylamino)-imino-methyl]-piperidin-4-yl}-[4-(1H-indol-3-yl)-piperidin-1-yl]-acetic acid]	30 nM
N=C(NC(=O)c1cc(F)cc(F)c1)N1CCC(C(C(=O)O)N2CCC(c3c[nH]c4ccccc34)CC2)CC1 (centres unmarked) [Cpd 51, {1-[(3,5-difluoro-benzoylamino)-imino-methyl]-piperidin-4-yl}-[4-(1H-indol-3-yl)-piperidin-1-yl]-acetic acid]	300 nM
N=C(NC(=O)c1cc(F)c(F)c(F)c1)N1CCC(C(C(=O)O)N2CCC(c3c[nH]c4ccccc34)CC2)CC1 (centres unmarked) [Cpd 52, {1-[imino-(3,4,5-trifluoro-benzoylamino)-methyl]-piperidin-4-yl}-[4-(1H-indol-3-yl)-piperidin-1-yl]-acetic acid]	30 nM
N=C(NC(=O)c1cccc(F)c1)N1CCC(C(C(=O)O)N2CCC(c3c[nH]c4ccccc34)CC2)CC1 (centres unmarked) [Cpd 54, {1-[(3-fluoro-benzoylamino)-imino-methyl]-piperidin-4-yl}-[4-(1H-indol-3-yl)-piperidin-1-yl]-acetic acid]	1400 nM
O=C(O)C(C1CCN(C(=S)Nc2cc(F)cc(F)c2)CC1)N1CCC(c2c[nH]c3ccccc23)CC1 (centres unmarked) [Cpd 55, [1-(3,5-difluoro-phenylthiocarbamoyl)-piperidin-4-yl]-[4-(1H-indol-3-yl)-piperidin-1-yl]-acetic acid]	115 nM
O=C(O)C(C1CCN(C(=S)Nc2cccc(Br)c2)CC1)N1CCC(c2c[nH]c3ccccc23)CC1 (centres unmarked) [Cpd 56, [1-(3-bromo-phenylthiocarbamoyl)-piperidin-4-yl]-[4-(1H-indol-3-yl)-piperidin-1-yl]-acetic acid]	60 nM
COc1ccc(/C=C/C(=O)N2CCC(C(C(=O)O)N3CCC(c4c[nH]c5ccccc45)CC3)CC2)cc1OC (centres unmarked) [Cpd 63, {1-[(2E)-3-(3,4-dimethoxy-phenyl)-acryloyl]-piperidin-4-yl}-[4-(1H-indol-3-yl)-piperidin-1-yl]-acetic acid]	1610 nM
O=C(O)C(C1CCN(C(=S)Nc2ccc(Cl)c(Cl)c2)CC1)N1CCC(c2c[nH]c3ccccc23)CC1 (centres unmarked) [Cpd 64, [1-(3,4-dichloro-phenylthiocarbamoyl)-piperidin-4-yl]-[4-(1H-indol-3-yl)-piperidin-1-yl]-acetic acid]	20 nM
COc1ccc(NC(=O)N2CCC(C(C(=O)O)N3CCC(c4c[nH]c5ccccc45)CC3)CC2)cc1OC (centres unmarked) [Cpd 66, [1-(3,4-dimethoxy-phenylcarbamoyl)-piperidin-4-yl]-[4-(1H-indol-3-yl)-piperidin-1-yl]-acetic acid]	17700 nM

Next, values leading:

IC50	SMILES
845 nM	COc1ccc(NC(=O)N2CCC(C(C(=O)O)N3CCC(c4c[nH]c5ccccc45)CC3)CC2)cc1Cl (centres unmarked) [Cpd 67, [1-(3-chloro-4-methoxy-phenylcarbamoyl)-piperidin-4-yl]-[4-(1H-indol-3-yl)-piperidin-1-yl]-acetic acid]
3550 nM	COC(=O)c1ccc(NC(=O)N2CCC(C(C(=O)O)N3CCC(c4c[nH]c5ccccc45)CC3)CC2)cc1 (centres unmarked) [Cpd 68, 4-[(4-{carboxy-[4-(1H-indol-3-yl)-piperidin-1-yl]-methyl}-piperidine-1-carbonyl)-amino]-benzoic acid methyl ester]
14200 nM	COc1ccc(NC(=O)N2CCC(C(C(=O)O)N3CCC(c4c[nH]c5ccccc45)CC3)CC2)cc1 (centres unmarked) [Cpd 69, [4-(1H-indol-3-yl)-piperidin-1-yl]-[1-(4-methoxy-phenylcarbamoyl)-piperidin-4-yl]-acetic acid]
150 nM	N=C(NC(=O)c1cccc(C(F)(F)F)c1)N1CCC(C(C(=O)O)N2CCC(c3c[nH]c4ccccc34)CC2)CC1 (centres unmarked) [Cpd 73, {1-[imino-(3-trifluoromethyl-benzoylamino)-methyl]-piperidin-4-yl}-[4-(1H-indol-3-yl)-piperidin-1-yl]-acetic acid]
140 nM	Cc1ccc(NC(=S)N2CCC(C(C(=O)O)N3CCC(c4c[nH]c5ccccc45)CC3)CC2)cc1 (centres unmarked) [Cpd 78, [4-(1H-indol-3-yl)-piperidin-1-yl]-(1-p-tolylthiocarbamoyl-piperidin-4-yl)-acetic acid]
2900 nM	O=C(O)C(C1CCN(C(=O)NCc2ccc(Cl)c(Cl)c2)CC1)N1CCC(c2c[nH]c3ccccc23)CC1 (centres unmarked) [Cpd 84, [1-(3,4-dichloro-benzylcarbamoyl)-piperidin-4-yl]-[4-(1H-indol-3-yl)-piperidin-1-yl]-acetic acid]
480 nM	O=C(O)C(C1CCN(C(=O)Nc2ccc(F)cc2)CC1)N1CCC(c2c[nH]c3ccccc23)CC1 (centres unmarked) [Cpd 90, [1-(4-fluoro-phenylcarbamoyl)-piperidin-4-yl]-[4-(1H-indol-3-yl)-piperidin-1-yl]-acetic acid]
11200 nM	O=C(O)C(C1CCN(C(=O)Nc2ccc(Cl)cc2Cl)CC1)N1CCC(c2c[nH]c3ccccc23)CC1 (centres unmarked) [Cpd 111, [1-(2,4-dichloro-phenylcarbamoyl)-piperidin-4-yl]-[4-(1H-indol-3-yl)-piperidin-1-yl]-acetic acid]
1000 nM	O=C(O)C(C1CCN(C(=O)Nc2ccc(Cl)cc2F)CC1)N1CCC(c2c[nH]c3ccccc23)CC1 (centres unmarked) [Cpd 117, [1-(4-chloro-2-fluoro-phenylcarbamoyl)-piperidin-4-yl]-[4-(1H-indol-3-yl)-piperidin-1-yl]-acetic acid]
3200 nM	COC(=O)C(C1CCN(C(=O)/C=C/c2cc(F)c(F)c(F)c2)CC1)N1CCC(c2c[nH]c3c(OC)cccc23)CC1 (centres unmarked) [Cpd 118, [4-(7-methoxy-1H-indol-3-yl)-piperidin-1-yl]-{1-[(2E)-3-(3,4,5-trifluoro-phenyl)-acryloyl]-piperidin-4-yl}-acetic acid methyl ester]
1700 nM	O=C(O)C(C1CCN(C(=O)Nc2ccc(F)c(F)c2F)CC1)N1CCC(c2c[nH]c3ccccc23)CC1 (centres unmarked) [Cpd 125, [4-(1H-indol-3-yl)-piperidin-1-yl]-[1-(2,3,4-trifluoro-phenylcarbamoyl)-piperidin-4-yl]-acetic acid]
2100 nM	O=C(O)C(C1CCN(C(=O)Nc2cc(Cl)c(Cl)cc2Cl)CC1)N1CCC(c2c[nH]c3ccccc23)CC1 (centres unmarked) [Cpd 126, [4-(1H-indol-3-yl)-piperidin-1-yl]-[1-(2,4,5-trichloro-phenylcarbamoyl)-piperidin-4-yl]-acetic acid]
8550 nM	CN(C)CC(C1CCN(C(=O)/C=C/c2cc(F)cc(F)c2)CC1)N1CCC(c2c[nH]c3ccccc23)CC1 (centres unmarked) [Cpd 130, (2E)-3-(3,5-difluoro-phenyl)-1-(4-{2-dimethylamino-1-[4-(1H-indol-3-yl)-piperidin-1-yl]-ethyl}-piperidin-1-yl)-propenone]
3900 nM	COc1cccc2c(C3CCN(C(CO)C4CCN(C(=O)OC(C)(C)C)CC4)CC3)c[nH]c12 (centres unmarked) [Cpd 131, 4-{2-hydroxy-1-[4-(7-methoxy-1H-indol-3-yl)-piperidin-1-yl]-ethyl}-piperidine-1-carboxylic acid tert-butyl ester]
